Measured values from patent publication US20100204113A1, “USE OF STRESSCOPIN-RELATED PEPTIDE AS A THERAPEUTIC AGENT” (priority 2007, published 2010).
No end group written: not given here.

System: drug-resistant Mycobacterium tuberculosis
Conditions: peptide 10 micrograms per ml, seven days

HPGSRIVLSLDVPIGLLQILLEQARARAAREQATTNARILARV-NH2 [Stresscopin-related peptide]
% inhibition: 0.0%
